Measurements taken from patent US20150105252A1, “SUBSTITUTED PYRAZOLES AS HERBICIDES” (E I DU PONT DE NEMOURS AND COMPANY, priority 2013, published 2015).

Tests used:
Details in all cases: scale 0 to 100
blackgrass = experiment: Test D preemergence; format: in vivo, Alopecurus myosuroides
Source text: (§1) Seeds of plant species selected from bluegrass (annual bluegrass, Poa annua), blackgrass (Alopecurus myosuroides), canarygrass (littleseed canarygrass, Phalaris minor), chickweed (common chickweed, Stellaria media), galium (catchweed bedstraw, Galium aparine), bromegrass, downy (downy bromegrass, Bromus tectorum), field poppy (Papaver rhoeas), field violet (Viola arvensis), foxtail, green (green foxtail, Setaria viridis), deadnettle (henbit deadnettle, Lamium amplexicaule), ryegrass, Italian (Italian ryegrass, Lolium multiflorum), kochia (Kochia scoparia), lambsquarters (Chenopodium album), oilseed rape (Brassica napus), pigweed (redroot pigweed, Amaranthus retroflexus), chamomile (scentless chamomile, Matricaria inodora), speedwell (bird's-eye speedwell, Veronica persica), barley, spring (spring barley, Hordeum vulgare), wheat, spring (spring wheat, Triticum aestivum), buckwheat, wild (wild buckwheat, Polygonum convolvulus), mustard, wild (wild mustard, Sinapis arvensis), oat, wild (wild oat, Avena fatua), radish, wild (wild radish, Raphanus raphanistrum), windgrass (Apera spica-venti), Russian thistle (Salsola kali), barley, winter (winter barley, Hordeum vulgare), and wheat, winter (winter wheat, Triticum aestivum) were planted into a silt loam soil and treated preemergence with test chemicals formulated in a non-phytotoxic solvent mixture which included a surfactant.
(§2) At the same time, these species were planted in pots containing Redi-Earth® planting medium (Scotts Company, 14111 Scottslawn Road, Marysville, Ohio 43041) comprising spaghnum peat moss, vermiculite, wetting agent and starter nutrients and treated with postemergence applications of the test chemicals formulated in the same manner. Plants ranged in height from 2 to 18 cm (1- to 4-leaf stage). Treated plants and controls were maintained in a controlled growth environment for 14 to 21 days after which time all species were compared to controls and visually evaluated. Plant response ratings, summarized in Table D, are based on a scale of 0 to 100 where 0 is no effect and 100 is complete control. A dash (-) response means no test result.

foxtail, green = experiment: Test D preemergence; format: in vivo, Setaria viridis
Method in brief: (§3)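 Formulation was a non-phytotoxic solvent mixture plus surfactant, applied either to soil at planting (silt loam, preemergence) or to foliage of 2–18 cm plants (postemergence). Visual evaluation versus controls followed at 14–21 days, scored 0–100.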

wheat, spring = experiment: Test D preemergence; format: in vivo, Triticum aestivum
Source text: as §1, §2

wheat, winter = experiment: Test D preemergence; format: in vivo, Triticum aestivum
Source text: as §1, §2

bluegrass = experiment: Test D postemergence; format: in vivo, Poa annua
Method in brief: as §3

kochia = experiment: Test D postemergence; format: in vivo, Kochia scoparia
Method in brief: as §3

oilseed rape = experiment: Test D postemergence; format: in vivo, Brassica napus
Source text: as §1, §2

speedwell = experiment: Test D postemergence; format: in vivo, Veronica persica
Method in brief: as §3

barley, spring = experiment: Test D postemergence; format: in vivo, Hordeum vulgare
Source text: as §1, §2

barley, winter = experiment: Test D postemergence; format: in vivo, Hordeum vulgare
Source text: as §1, §2

Compound	Plant response rating, Blackgrass (blackgrass; 31 g ai/ha)	Plant response rating, Blackgrass (blackgrass; 62 g ai/ha)	Plant response rating, Blackgrass (blackgrass; 125 g ai/ha)	Plant response rating, Blackgrass (blackgrass; 250 g ai/ha)	Plant response rating, Foxtail, Green (foxtail, green; 62 g ai/ha)	Plant response rating, Foxtail, Green (foxtail, green; 125 g ai/ha)	Plant response rating, Foxtail, Green (foxtail, green; 250 g ai/ha)	Plant response rating, Wheat, Spring (wheat, spring; 62 g ai/ha)	Plant response rating, Wheat, Spring (wheat, spring; 125 g ai/ha)	Plant response rating, Wheat, Spring (wheat, spring; 250 g ai/ha)	Plant response rating, Wheat, Winter (wheat, winter; 62 g ai/ha)	Plant response rating, Wheat, Winter (wheat, winter; 125 g ai/ha)	Plant response rating, Wheat, Winter (wheat, winter; 250 g ai/ha)	Bluegrass plant response rating (bluegrass; Postemergence, 31 g ai/ha)	Bluegrass plant response rating (bluegrass; Postemergence, 125 g ai/ha)	Bluegrass plant response rating (bluegrass; Postemergence, 250 g ai/ha)	Bluegrass plant response rating (bluegrass; postemergence, 62 g ai/ha)	Kochia plant response rating (kochia; Postemergence, 31 g ai/ha)	Kochia plant response rating (kochia; Postemergence, 125 g ai/ha)	Kochia plant response rating (kochia; Postemergence, 250 g ai/ha)	other results
CCCc1cc(C(=O)NCC(F)(F)F)nn1Cc1cc(C(F)(F)F)nn1C [Compound 138]	15	30	85	100	100	100	100	10	35	50	30	40	60	15	30	60	15	75	80	80	Kochia plant response rating (kochia; postemergence, 62 g ai/ha): 75; Oilseed Rape plant response rating (oilseed rape; Postemergence, 31 g ai/ha): 60; Oilseed Rape plant response rating (oilseed rape; Postemergence, 125 g ai/ha): 90; Oilseed Rape plant response rating (oilseed rape; Postemergence, 250 g ai/ha): 100; Oilseed Rape plant response rating (oilseed rape; postemergence, 62 g ai/ha): 60; Speedwell plant response rating (speedwell; Postemergence, 31 g ai/ha): 100; Speedwell plant response rating (speedwell; Postemergence, 125 g ai/ha): 100; Speedwell plant response rating (speedwell; Postemergence, 250 g ai/ha): 100; Speedwell plant response rating (speedwell; postemergence, 62 g ai/ha): 100; Barley, Spring plant response rating (barley, spring; Postemergence, 31 g ai/ha): 15; Barley, Spring plant response rating (barley, spring; Postemergence, 125 g ai/ha): 25; Barley, Spring plant response rating (barley, spring; Postemergence, 250 g ai/ha): 40; Barley, Spring plant response rating (barley, spring; postemergence, 62 g ai/ha): 15; Barley, Winter plant response rating (barley, winter; Postemergence, 31 g ai/ha): 15; Barley, Winter plant response rating (barley, winter; Postemergence, 125 g ai/ha): 20; Barley, Winter plant response rating (barley, winter; Postemergence, 250 g ai/ha): 40; Barley, Winter plant response rating (barley, winter; postemergence, 62 g ai/ha): 15
CCOc1cc(C(=O)NC2CC2)nn1Cc1ccnc(C(F)(F)F)c1 [Compound 189]	35	60	80	100	100	100	100	10	40	80	15	65	85	15	15	30	15	75	80	85	Kochia plant response rating (kochia; postemergence, 62 g ai/ha): 75; Oilseed Rape plant response rating (oilseed rape; Postemergence, 31 g ai/ha): 40; Oilseed Rape plant response rating (oilseed rape; Postemergence, 125 g ai/ha): 55; Oilseed Rape plant response rating (oilseed rape; Postemergence, 250 g ai/ha): 60; Oilseed Rape plant response rating (oilseed rape; postemergence, 62 g ai/ha): 40; Speedwell plant response rating (speedwell; Postemergence, 31 g ai/ha): 70; Speedwell plant response rating (speedwell; Postemergence, 125 g ai/ha): 85; Speedwell plant response rating (speedwell; Postemergence, 250 g ai/ha): 90; Speedwell plant response rating (speedwell; postemergence, 62 g ai/ha): 70; Barley, Spring plant response rating (barley, spring; Postemergence, 31 g ai/ha): 10; Barley, Spring plant response rating (barley, spring; Postemergence, 125 g ai/ha): 15; Barley, Spring plant response rating (barley, spring; Postemergence, 250 g ai/ha): 25; Barley, Spring plant response rating (barley, spring; postemergence, 62 g ai/ha): 10; Barley, Winter plant response rating (barley, winter; Postemergence, 31 g ai/ha): 15; Barley, Winter plant response rating (barley, winter; Postemergence, 125 g ai/ha): 20; Barley, Winter plant response rating (barley, winter; Postemergence, 250 g ai/ha): 20; Barley, Winter plant response rating (barley, winter; postemergence, 62 g ai/ha): 15
